One test deals with T1, ovine COX-1 (Ovis aries, UniProt P05979).
T1 sequence (P05979 25-600): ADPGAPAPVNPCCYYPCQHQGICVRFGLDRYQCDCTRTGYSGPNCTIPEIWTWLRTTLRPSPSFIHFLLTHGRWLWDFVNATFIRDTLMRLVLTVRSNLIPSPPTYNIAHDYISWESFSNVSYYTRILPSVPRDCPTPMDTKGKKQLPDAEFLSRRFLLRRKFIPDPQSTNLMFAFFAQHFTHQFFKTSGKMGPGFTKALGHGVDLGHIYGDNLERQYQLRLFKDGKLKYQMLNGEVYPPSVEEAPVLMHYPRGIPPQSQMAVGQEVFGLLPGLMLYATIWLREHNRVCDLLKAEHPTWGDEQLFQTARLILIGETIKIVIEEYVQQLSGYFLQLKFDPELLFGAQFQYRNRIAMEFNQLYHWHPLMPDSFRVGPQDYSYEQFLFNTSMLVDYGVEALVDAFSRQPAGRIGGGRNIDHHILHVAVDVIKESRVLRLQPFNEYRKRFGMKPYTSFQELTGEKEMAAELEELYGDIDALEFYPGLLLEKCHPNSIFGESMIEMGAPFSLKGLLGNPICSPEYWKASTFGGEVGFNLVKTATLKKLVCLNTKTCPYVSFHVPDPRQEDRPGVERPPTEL
Description: biochemical. On the procedure:
(§1) The full method is provided in the Supplementary materials.
(§2) Serial dilutions (100, 10, 1, 0.1, and 0.01 µg/mL) of the F. solani extract and the isolated metabolites were prepared and solvated in DMSO, then estimated for their abilities to inhibit the synthesis of prostaglandin using the kits for screening test for COX inhibitors (BioVision, Inc., USA, Mountain View, Catalog # K548-100 and Catalog # K547-100, for COX- […]
(§3) The investigational methodology was carried out following the provider’s recommendations. Arachidonic acid is being converted into prostaglandin (PGH2) by the cyclooxygenase enzyme (COX). During the reduction, the PGF2α formed in PGH2 via stannous chloride was evaluated via ELISA (enzyme-linked immunoassay). This bioassay is based on the competition among an antibody; PGspecific and a cholinesterase conjugate; PG-acetyl. The developed (antibody-PG) was combined with an acetylcholinesterase substrate included in Ellman's reagent. Each sample (20 µL) was used, (10 µL) heme, and (10 µL) enzyme, were combined to the reaction buffer solution (160 µL) formed of (2 mM phenol and 5 mM ethylenediamine tetra acetate (EDTA) in 0.1 M Tris-HCl, pH 8), followed by incubation of the mixture in a water bath at 37 °C for 10 min. Subsequently, starting the COX reaction was done by adding 10 µL of arachidonic acid, with a final concentration of […], to the reaction mixture.
(§4) Later, the COX reactions were ended after 2 min by adding saturated stannous chloride (30 µL), then inoculate for 5 min at room temperature. Afterwards, the PGF2α level was measured using ELISA. Subsequent move to a 96-well plate, inoculate the samples at room temperature for 18 h, then wash the plate to eliminate any residual reagents, followed by the addition of Ellman’s reagent (200 µL) which contains an acetylcholinesterase substrate, and incubation at room temperature for 60 to 90 min. A spectrophotometer with a microplate reader at 410 nm was used to measure the produced color at 410 […]
(§5) The data mean values from three measurements were used to calculate IC50 values. […]

The target of a further test is T2, recombinant human COX-2 (Homo sapiens, UniProt P35354).
T2 sequence (P35354 18-604): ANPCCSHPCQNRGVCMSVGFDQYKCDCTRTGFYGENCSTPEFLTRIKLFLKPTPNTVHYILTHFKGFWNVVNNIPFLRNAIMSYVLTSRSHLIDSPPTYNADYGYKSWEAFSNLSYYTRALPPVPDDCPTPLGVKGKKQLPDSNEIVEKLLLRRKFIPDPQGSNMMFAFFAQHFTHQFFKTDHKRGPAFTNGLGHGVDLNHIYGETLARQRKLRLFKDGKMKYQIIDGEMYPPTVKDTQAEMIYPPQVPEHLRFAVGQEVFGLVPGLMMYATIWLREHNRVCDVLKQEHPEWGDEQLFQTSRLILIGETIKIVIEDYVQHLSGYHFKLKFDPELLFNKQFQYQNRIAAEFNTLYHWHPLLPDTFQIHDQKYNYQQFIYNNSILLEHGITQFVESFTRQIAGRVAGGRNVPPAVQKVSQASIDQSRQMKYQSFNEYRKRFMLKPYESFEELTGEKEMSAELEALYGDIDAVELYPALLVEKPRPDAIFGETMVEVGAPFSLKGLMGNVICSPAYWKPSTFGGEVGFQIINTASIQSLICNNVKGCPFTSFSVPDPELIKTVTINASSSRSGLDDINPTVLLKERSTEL
Description: biochemical. Conditions: for Selectivity index (SI): COX-2 selectivity from COX-1 and COX-2 IC50. On the procedure:
as §1, §2, §3, §4, §5

The target in the next test is tyrosinase enzyme. The experiment in a line: Tyrosinase inhibitory assay (L-DOPA substrate, BioVision kit). The class given is biochemical. Conditions: mean ± SEM, triplicate. An excerpt: The anti-tyrosinase capacities of the F. solani extract together with the six isolated metabolites were investigated via evaluating their inhibitory activities against tyrosinase enzyme. The full method is provided in the Supplementary materials. […]
Tyrosinase inhibitory assay
The anti-tyrosinase capacities of the F. solani extract together with the six isolated metabolites were investigated via evaluating their inhibitory activities against tyrosinase enzyme using the kits for screening test of tyrosinase enzyme inhibition (BioVision, Inc., USA, Mountain View, Catalog # K575-100).
First, all samples were dissolved using DMSO (reference drug, EtOAc extract and the isolated compounds) preparing different concentrations. The assay of tyrosinase inhibition was done as previously reported 3. The mixture of assay composed of test solution (1900 μL) in (0.1 M) buffer phosphate pH 6.8 and freshly prepared enzyme solution (100 μL) which is composed of 15 U/mL in (0.1 M) buffer phosphate pH 6.8. The 30 min. of room temperature after pre-incubation, the reaction was started by adding substrate solution (1000 μL) which composed of L-DOPA (1.5 Mm) in buffer phosphate (0.1 M) pH 6.8. After 7 minutes of room temperature incubation, the mixture of the assay was analyzed for absorbance at […]
510 nm. […] The activity of tyrosinase inhibition
(The activity of the enzyme together with the tested samples). The mean values of the data from three measurements were used to calculate IC50 values.

Setting [1] is: mean ± SEM, triplicate, read-out: IC50 COX-2.
The mark [2] stands for this setting: mean ± SEM, triplicate, read-out: IC50 COX-1.

Molecules are shown by their SMILES. Read-outs that look alike come from different tables or passages of the source.

As to `O=C(O)CC(O)C(=O)O` (stereo not drawn) [Malic acid (5), malic acid], the IC50 on ovine COX-1 was 51 ± 0.86 µM; on recombinant human COX-2 (setting [1]) it was 10.4 ± 0.3 µM; against tyrosinase enzyme, 87.5 ± 1.84 µM; against tyrosinase enzyme (listed as malic acid), over 50 µM.

For the compound `O=C(O)c1ccc(O)cc1` [4-Hydroxybenzoic acid (2), 4-hydroxybenzoic acid], the IC50 on ovine COX-1 (setting [2]) came to 44.5 ± 0.92 µM; on recombinant human COX-2 (setting [1]), 28.4 ± 0.76 µM; against tyrosinase enzyme, 25.4 ± 0.53 µM.

As to `O=C(O)CCCCCCCC(=O)O` [Azelaic acid (4), azelaic acid], the IC50 on ovine COX-1 (setting [2]) was 11.6 ± 0.29 µM; at recombinant human COX-2 (setting [1]) it was 2.21 ± 0.06 µM; against tyrosinase enzyme it was 8.75 ± 0.18 µM. For the same compound, at recombinant human COX-2, the “Selectivity index (SI)” value was determined as 5.24.

As for `CCCCc1ccc(C(=O)O)nc1` [Fusaric acid (6), fusaric acid], the IC50 on ovine COX-1 stood at 3.86 ± 0.05 µM; at recombinant human COX-2 (setting [1]), 4.81 ± 0.14 µM; against tyrosinase enzyme it was 13.4 ± 0.27 µM. Besides, on recombinant human COX-2, the “Selectivity index (SI)” value came to 0.8.

On to `OCCc1ccc(O)cc1` [Tyrosol (3), tyrosol], for which the IC50 was 23.9 ± 0.38 µM against ovine COX-1, 5.31 ± 0.15 µM on recombinant human COX-2 and 11.3 ± 0.24 µM at tyrosinase enzyme. Also, the “Selectivity index (SI)” value at recombinant human COX-2 came out at 4.49.

As to `O=Cc1ccc(O)cc1` [4-Hydroxybenzaldehyde (1), 4-hydroxybenzaldehyde], the IC50 on ovine COX-1 (setting [2]) is 25.7 ± 0.55 µM; at recombinant human COX-2 (setting [1]) it was 8.87 ± 0.26 µM; at tyrosinase enzyme (listed as 4-hydroxybenzaldehyde), over 50 µM; on tyrosinase enzyme (listed as 4-hydroxybenzaldehyde (1)), 70.6 ± 1.49 µM. Also, the “Selectivity index (SI)” value on recombinant human COX-2 is given as 2.9.

The IC50 is the concentration at which inhibition is half-maximal.

The values are drawn from publication PMC11193793 (Scientific Reports, 2024).
